Assay results: patent publication US8906888B2, “Low-calcemic 16,23-diene 25-oxime analogs of 1α,25-dihydroxy vitamin D3” (Cytochroma Inc., priority 2005, dated 2014)

Tests used:
[1] = target: T1, CYP24 (Homo sapiens, UniProt Q07973); assay: CYP24 enzyme assay (V79-CYP24 cells, 3H-1α,25(OH)2D3 substrate); format: cell-based; details: substrate 20 nM, 2 hours, read-out: IC50 in the inhibition of CYP24
T1 construct: expressed in transfected cells; host or cells: V79-CYP24 cells (V79 = Chinese hamster lung fibroblasts, own knowledge; kept under hygromycin selection)
T1 sequence (Q07973 36-514): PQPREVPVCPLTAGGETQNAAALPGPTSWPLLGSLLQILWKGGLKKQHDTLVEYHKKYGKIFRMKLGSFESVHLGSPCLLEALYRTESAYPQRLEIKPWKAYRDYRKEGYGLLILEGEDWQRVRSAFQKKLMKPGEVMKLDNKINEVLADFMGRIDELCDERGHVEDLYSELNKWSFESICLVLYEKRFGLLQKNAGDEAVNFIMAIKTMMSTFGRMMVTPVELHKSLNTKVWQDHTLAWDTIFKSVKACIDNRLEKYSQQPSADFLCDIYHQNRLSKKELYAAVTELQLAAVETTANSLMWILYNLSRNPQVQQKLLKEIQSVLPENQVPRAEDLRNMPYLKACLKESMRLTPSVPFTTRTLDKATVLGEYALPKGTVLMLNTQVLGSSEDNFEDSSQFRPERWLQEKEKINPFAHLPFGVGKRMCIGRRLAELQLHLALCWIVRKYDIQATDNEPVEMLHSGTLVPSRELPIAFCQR
Experimental: (i) Material and Reagents:
Substrates (1 mM) reconstituted in isopropanol
1. Preparation of Cell Suspension • On the day of the assay, washed the monolayer of V79-CYP24 cells once with 1×PBS buffer and then trypsinized for 5 min at room temperature (approx. 22° C.). Added 1×PBS. Collected cells into tube, centrifuged cells (500×g, 5 min) and resuspended in DMEM+1% BSA media. Counted cells and adjusted density to 2 million/1 mL.
2. Cell Plating • Added 80 μl of cell suspension to appropriately labeled wells of a 96-well plate. Incubated plate for 45 minutes at 37° C. in a humidified atmosphere containing 5% CO2.
3. Compound Addition • Added 10 μl of inhibitor (10^−6 to 10^−10 M) and then after 35-40 min added 10 μl of substrate [^3H-1β]-1α,25(OH)2D3 (20 nM) for 2 hours at 37° C. in a humidified atmosphere containing 5% CO2. Both inhibitor and substrate were prepared in DMEM with 1% BSA media.
4. Lipid Extraction and Counting • Added 250 μl of methanol to stop the reaction and mixed. Added […] of dichloromethane, covered block and vortexed. Added […] of dichloromethane again, added […] of saturated KCl and vortexed. Centrifuged at 3000 rpm for 30 min. Triplicate 100 μl aliquots of aqueous fraction were mixed with 200 μl of scintillation fluid and the radioactivity was measured using a scintillation counter. All values were normalized for background. (iii) Results: • 1. […] (iv) Reference: 1. PCT Patent Application Serial No. PCT/CA03/00620

[2] = system: CYP24 mRNA; assay: CYP24 transcriptional activation assay in U-937 cells (real time PCR); format: cell-based, human; details: six hours, normalized to GAPDH, 100 nM calcitriol set to 100%
Experimental: 1α,25(OH)2D3 1 mM reconstituted in isopropanol
• Sodium pyruvate • Non-essential amino acids • HEPES • 10% fetal bovine serum Phorbol 12-myristate 13-acetate (PMA) 24-well plate Isopropanol TRIzol® reagent (Invitrogen) Chloroform Ethanol Diethylpyrocarbonate treated dH2O Thermoscript™ RT-PCR System kit (Invitrogen) Human CYP24 TaqMan® Probe (Applied Biosystems Inc) Human GAPDH TaqMan® Probe (Applied Biosystems Inc) TaqMan® Universal Master Mix Probe (Applied Biosystems Inc) (ii) Procedure:
1. Cell Culture, Stimulation and Plating • Cultured U-937 cells in 4+RPMI media to a level of ≈80% confluence. Pelleted cells by centrifugation and resuspended to a concentration of 5×10^5 cells per 1 ml media. Treated U-937 cells with a final concentration of PMA of 20 ng/ml. To each well, of a 24-well plate, added 1 ml of cell suspension and incubated overnight at 37° C., in a humidified atmosphere containing 5% CO2, for adherence of cells to the wells.
2. Cell Treatment and TRIzol® Addition • Changed the media with 1 ml of fresh 4+RPMI media. Added 1 μl of the working solutions of 1, 10, and 100 μM of the compound being tested, in triplicate. Added 1 μl of isopropanol as a control, in triplicate. Incubated the cells for six hours at 37° C., in a humidified atmosphere containing 5% CO2, aspirated off the media and then added 1 ml of TRIzol® reagent. Transferred TRIzol® with cell lysate to a 1.7 ml microcentrifuge tube and stored at −80° C.
3. […] Determined the concentration of RNA using a spectrophotometer to measure the optical density of each sample, at a wavelength of 260 nm. […]
4. CYP24/GAPDH Real Time PCR • Determined the amount of CYP24 and GAPDH mRNA present in each sample using commercial TaqMan® probes, from Applied Biosystems Inc. (Foster City, Calif.). Detected both genes in the same 20 μl reaction, using an ABI PRISM 96-well optical reaction plate and cycle 50 times using an ABI Prism 7000 Sequence Detection System® (ABI). […]

[3] = system: OVCAR-3 cells; assay: [3H]-Thymidine proliferation assay with OVCAR-3 cells; format: cell-based; details: ovarian cancer cells, 6 days, 3H-thymidine incorporation
Experimental: 1. Preparation of Suspension • When OVCAR-3 cells were ˜50% confluent, aspirated media. Washed cells with 1×PBS. Trypsinized with trypsin-EDTA, collected cells from the tissue culture flask, centrifuged (200×g, 5 min) and resuspended in media.
2. Cell Plating. • Counted the cells and adjusted the cell density to 11.4×10^3 to provide 2000 cells in 175 μl (for 1 well). Distributed cell suspension into a 96 well plates at 175 μl (2000 cells) per well. Incubated plate for 24 h at 37° C. in a humidified atmosphere plus 5% CO2. • Substrate addition. • Added 25 μl of compound (final concentration 10^−7 M, 5×10^−8 M 10^−8 M, 5×10^−9 M, 10^−9 M, 10^−10M or 0 M) into each designated well. Incubated plates for 6 days without changing media and drugs at 37° C. in a humidified atmosphere plus 5% CO2.
3. [^3H]-Thymidine incorporation • Added ^3H-thymidine at 0.02 μCi per well and incubated at 37° C. in a humidified atmosphere plus 5% CO2 for 6 h.
4. Plate Harvesting. • Aspirated all media and washed cells with 1×PBS. Trypsinized cells for 30 min at 37° C. in a humidified atmosphere plus 5% CO2. Harvested cells onto a 96 well filter plate (Millipore) using a Tomtec Cell Harvestor, according to manufacturers instructions.
5. Scintillation Counting. • Added 25 μl of scintillation fluid per well. Counted the plate using a scintillation counter. Results: Compounds (20R)-I(a), (20R)-I(c) and (20R)-I(e) all inhibited the proliferation of OVCAR-3 cells.

[4] = Standard hypercalcemia assay (urine calcium, oral daily dosing for one week); format: in vivo; details: rat

| IC50 [1] [µM] | Levels of calcium in the urine [4] | Compound | CYP24 mRNA induction, activity as % of that for calcitriol at 100 nM [2] [%] | Inhibition of OVCAR-3 cell proliferation [3] |
| --- | --- | --- | --- | --- |
| 0.0859 |  | C=C1/C(=C\C=C2/CCC[C@]3(C)C([C@H](C)C/C=C/C(=N\OC)C4CC4)=CC[C@@H]23)C[C@@H](O)C[C@@H]1O [(20R)-I(c)] | 30 | inhibited |
|  | significant increase | C=C1/C(=C\C=C2/CCC[C@]3(C)[C@@H]([C@H](C)CCCC(C)(C)O)CC[C@@H]23)C[C@@H](O)C[C@@H]1O [calcitriol, 1α,25-Dihydroxy vitamin D3] |  |  |
| 0.488 |  | C=C1/C(=C\C=C2/CCC[C@]3(C)C([C@H](C)C/C=C/C(=N\OC)C(F)(F)F)=CC[C@@H]23)C[C@@H](O)C[C@@H]1O [(20R)-I(a)] | 54 | inhibited |
